Test results as given in patent US20150313228A1, “SYNERGISTIC HERBICIDAL COMBINATIONS AND METHODS OF USE” (priority 2012, published 2015).

Tested on: soybean varieties
Experiment: Metribuzin sensitivity or tolerance phenotype of soybean varieties (Table S-3)
Assay type: in vivo, Glycine max
Excerpt: To observe the presence or absence of the “metribuzin sensitivity” or metribuzin tolerance phenotypes, soybean plants are typically exposed in early to mid-vegetative growth stages to one or more doses of metribuzin. Typical doses of metribuzin that can elicit a metribuzin sensitivity phenotype can range from about a 1-fold label application rate of a commercially available metribuzin formulation (i.e. about 0.25 pounds per acre) to about a 3-fold label application rate (i.e. about 0.75 pounds per acre) of a commercially available metribuzin formulation. Commercially available formulations containing metribuzin that can be used include, but are not limited to, Authority®MTZ (FMC Corporation, Philadelphia, Pa., USA); Boundary (Syngenta, Wilmington, Del., USA); Canopy® or Lexone® (Dupont, Wilmington, Del., USA); Sencor® (Bayer Crop Science, Research Triangle Park, N.C., USA); or TriCor® DF (United Phosphorus, Inc., King of Prussia, Pa., USA. In certain embodiments, the commercially available metribuzin formulation used is TriCor® 75DF. In certain embodiments, doses of metribuzin that can elicit a metribuzin sensitivity phenotype can range from about a 1 fold application rate of about 0.25 pounds per acre to about a three fold application rate of 0.75 pounds per acre.
The metribuzin sensitivity phenotype can be observed approximately one week to three weeks after herbicide application in certain soybean varieties that are sensitive to metribuzin. Metribuzin is typically applied during pre and post-emergent vegetative growth stages. In certain embodiments of these methods, metribuzin can be applied to the soil about 2 days prior to soybean seed planting and activated by irrigation of the planted seed to score for the presence of the metribuzin sensitivity phenotype. Genotypes provided herein are especially useful for providing metribuzin tolerance to plants exposed to metribuzin by a pre-emergence soil drench. As discussed herein, the vegetative stages of soybean are as follows: VE (emergence), VC (cotyledon stage), V1 (first trifoliate leaf), V2 (second trifoliate leaf), V3 (third trifoliate leaf), V(n) (nth trifoliate leaf), and V6 (flowering will soon start). As discussed herein, the reproductive stages of soybean are as follows: R1 (beginning bloom), R2 (full bloom), R3 (beginning pod), R4 (full pod), R5 (beginning seed), R6 (full seed), R7 (beginning maturity) and R8 (full maturity). A description of the soybean vegetative and reproductive stages can be found on the World Wide Web (internet) at ag.ndsu.edu/pubs/plantsci/rowcrops/a1174/a1174w.htm (North Dakota State University publication A-1174, June 1999, Reviewed and Reprinted August 2004).
A rating scale that evaluates the degree of metribuzin sensitivity can also be employed to identify “metribuzin sensitive” and “metribuzin tolerant” plants. An exemplary and non-limiting scale for evaluating the Metribuzin sensitivity phenotype is as follows, where a low number corresponds to a “metribuzin tolerance” phenotype and the a high number correlates to a “metribuzin sensitivity” phenotype:
A non-limiting and exemplary list of soybean plants that comprise genomic regions associated with either a metribuzin sensitivity or a metribuzin tolerance phenotype are provided herewith in Table S-3.

Measured: METRIBUZIN PHENOTYPE

CSc1nnc(C(C)(C)C)c(=O)n1N [Metribuzin, 4-amino-6-(1,1-dimethylethyl)-3-(methylthio)-1,2,4-triazin-5(4H)-one]
Sensitive: soybean variety AG6130 | soybean variety AG6730 | soybean variety BURLISON (from TRACY) | soybean variety DASSEL (from PAGODA) | soybean variety H7550 | soybean variety PAGODA | soybean variety TRACY
Tolerant: soybean variety AG4531 | soybean variety AG4730 | soybean variety AG6931 | soybean variety Tracy-M
